Laboratory results reported in US4822791A, “Pharmaceutical compositions of-2,2-1,1-[bis-2,2'-(3,1-benzoxazin-4-one)9 ethylenes” (priority 1984, dated 1989).
Several values for one entry are separate records, joined by “and”; a condition that tells them apart may be missing. Identical values can stand only once. Like-named read-outs stand apart in the source and are kept apart here.

Key:
[1] = test system: passive cutaneous anaphylaxis (PCA); assay: Anti-passive cutaneous anaphylaxis (PCA) activity in rats (Test Example 2); assay type: in vivo, Wistar strain rats; settings: Rattus norvegicus, N 10; for inhibition in vivo at 10 mg/kg: 10 mg/kg PO; for inhibition in vivo at 50 mg/kg: 50 mg/kg PO; for inhibition in vivo at 100 mg/kg: 100 mg/kg PO
How it was run: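 Antiserum from Wistar rats sensitized with ovalbumin (alum plus B. pertussis adjuvant) was diluted 16- or 32-fold and injected into dorsal skin of naive rats, which were held 48 h. Compound was given orally 1 h before i.v. ovalbumin plus Evans blue.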

[2] = test system: anaphylaxis reaction to inhalated antigen; assay: Antigen inhalation test on passive sensitized guinea pig (experimental asthma model); assay type: in vivo; settings: 200 mg/kg po
Protocol: The test compound and Tranilast were respectively suspended at the time of use in 5% gum arabic solution containing 0.1% Tween 80 at the rate of 40 mg/ml, and were perorally administered at the rate of 0.5 ml per 100 g body weight of the animal.
DSCG was dissolved at the time of use in physiological saline solultion for injection at the rate of 5.0 mg/ml, and was intravenously injected at the rate of 0.1 ml per 100 g body weight of the animal.
Anti-ovalbumin rabbit serum diluted with physiological saline solution for injection so as tc contain anti-ovalbumin rabbit antibody at the rate of 0.187 mg N/ml was intravenously administered to guinea pig at the rate of 0.1 ml per 100 g of body weight and it was passively sensitized.
Twenty-four hours later, the suspension of the compound prepared in (1) above was perorally or intravenously administered to the animal. The animal was put in the inhalation chamber one hour after the administration in case of the peroral administration and five minutes after the administration in case of the intravenous administration, and 2% physiological saline solution of antigen ovalbumin was inhaled by spraying. Over 10 minutes' period from the time immediately after the forced inhalation, the time until its fall attributed to anaphylaxis reaction was recorded, and the numbers of alive and dead animals after lapse of 10 minutes were also counted.

[3] = test system: experimental ulcer model (Shay); assay: Anti-ulcer activity in experimental ulcer model (Shay); assay type: in vivo, Wistar strain male rats
How it was run: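 Wistar male rats, 8 weeks old, 5 per group, fasted 48 h, pylorus ligated under ether (Shay method); compound in 0.5% CMC/0.1% Tween 80 given id or ip, vehicle to controls. Stomach removed 8 h later; ulcers scored, gastric juice volume, acidity (alkali titration), pepsin (haemoglobin substrate) expressed as % inhibition versus control mean.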

SRS-A = assay: Anti-SRS-A activity, contraction of guinea pig ileum by crude SRS-A solution; design: key to Anti-SRS-A activity (rate of inhibition against the contraction amount): % inhibition of SRS-A-induced ileum contraction
Protocol: A piece of lungs of guinea pig sensitized with ovalbumin was incubated with antigen ovalbumin at 37° C. for 20 minutes to obtain a supernatant solution, which was used as a crude SRS-A solution.
A piece of ileum of normal guinea pig was suspended in Magnus tube filled with Tyrode's solution and incubated with the solution of drug to be examined for a certain duration, and the contraction of the piece of ileum induced by adding the above crude SRS-A solution was determined on the basis of the contraction rate attributed to hystamine dihydrochloride 10^-6 M. The rate of inhibition against the contraction amount was taken as anti-SRS-A activity.

[4] = test system: mast cell in abdominal cavity; assay: Inhibition of histamine release from mast cell in abdominal cavity in rat (Test Example 6); assay type: cell-based
Protocol: Examination was made on the activity of inhibition of histamine release from mast cell by antigen-antibody reaction.
Swine ascaris extract solution was dinitrophenylated according to Aisen's method, dialysed, and lyophilized. The product was administered as antigen together with Bordetella Pertussis vaccine subcutaneously into the foot pad of rat. Eight days later, blood was taken to obtain antiserum. The PCA titer for this antiserum in rat was 32 to 64.
Heparin-containing PBS was injected intraperitoneally to rat which was sacrificed by exsanguination, after which the abdomen was well massaged to collect the injected PBS, which was purified by washing several times by centrifugation. The number of the mast cells contained in the solution was determined and adjusted to the designed concentration. As to method of sensitizing the cell, the above cell suspension (6 ml, 2×10^6 cells/ml) was treated with anti-DNP-Ascaris rat serum (PCA titer 32) (6 ml) and the mixture was incubated in the presence of hepain at 37° C. for 2 hours.
To the sensitized mast cell suspension the solution of the drug to be tested was added, and the mixture was preliminarily incubated at 37° C. for 12 minutes. After addition of the solution of antigen DNP-Ascaris (final concentration, 20 microgramms/ml), the mixture was further incubated for 20 minutes. After completion of the reaction, the solution was centrifuged (500 G, 10 min.) under a low temperature to obtain a supernatant solution. Histamine contained in the supernatant solution was subjected to fluorometry by crthophthalaldehyde method.

[5] = test system: passive systemic anaphylaxis (PSA); assay: Preventive activity against passive systemic anaphylaxis (PSA) in guinea pig; assay type: in vivo, Hartley strain female guinea pig
Protocol: Effect of the compound on prevention of death by passive systemic anaphylaxis was examined in guinea pig.
Normal Hartley strain female guinea pig (body weight, 240-260 g) was sensitized by intravenous administraticn of anti-ovalbumin rabbit serum. It was perorally administered with the compound 11 in the amount of 200 mg/kg. One hour later, it was intravenously administered with 2% physiological saline solution of antigen ovalbumin at the rate of 0.05 ml. Thereafter, the state was observed, and the time (seconds) until death was measured.

[6] = Acute toxicity LD50 in mice (Test Example 8); settings: mouse, in vivo, one week, Probit method
Protocol: (§1) ddy-Strain mice (male) and Wistar strain rats were used to obtain LD50 values.
(§2) According to the ordinary procedure, suspension or solution of test sample was administered to the animals. From the number of the died animals until one week after the administration, LD50 values were obtained by Probit method.

[7] = Acute toxicity LD50 in rats (Test Example 8); settings: rat, in vivo, po; one week; Probit method; read-out: LD50 value (mg/kg body weight) Rat p.o.
Protocol: as §1, §2

[8] = read-out: Average Inhibition Rate (%) Antiserum Dilution: × 16
[9] = read-out: Average Inhibition Rate (%) Antiserum Dilution: × 32

SMILES: O=C(Nc1ccccc1C(=O)O)C(=Cc1ccccc1)C(=O)Nc1ccccc1C(=O)O [Compound 11, 2,2'-[(1,3-dioxo-2-phenylmethylene-1,3-propanediyl)diimino]bisbenzoic acid]
- inhibition in vivo at 10 mg/kg [1, 8]: 23.2%
- inhibition in vivo at 10 mg/kg [1, 9]: 33.1%
- inhibition in vivo at 50 mg/kg [1, 8]: 41.4%
- inhibition in vivo at 50 mg/kg [1, 9]: 39.1%
- inhibition in vivo at 100 mg/kg [1, 8]: 52.9%
- inhibition in vivo at 100 mg/kg [1, 9]: 53.5%
- Extended rate (%) [2]: 43.5%
- preventive effect on anaphylaxis reaction (in words) [2]: strong preventive effect
- Average time for falling Mean ± S.E. ([2]; N 5): 223.0 ± 15.7 s
- Required time (sec.) for falling and Number of death (#), single animals ([2]; N 5, observed 10 minutes, # shows death): 194 s and 227 s and 248 s and > 600 s
- Inhibition % Gastric Acidity ([3]; id 100 mg/kg): 4.7%
- Inhibition % secretion amount of gastric juice ([3]; id 100 mg/kg): 0%
- Inhibition % total pepsin titer ([3]; id 100 mg/kg): 0%
- Inhibition % Gastric Acidity ([3]; id 200 mg/kg): 16.5%
- Inhibition % secretion amount of gastric juice ([3]; id 200 mg/kg): 20.1%
- Inhibition % total pepsin titer ([3]; id 200 mg/kg): 9.1%
- Anti-SRS-A activity (rate of inhibition against the contraction amount) (SRS-A; 10^-3 M): 31.8
- Anti-SRS-A activity (rate of inhibition against the contraction amount) (SRS-A; 10^-4 M): 0
- Anti-SRS-A activity (rate of inhibition against the contraction amount) (SRS-A; 10^-5 M): 0
- Anti-SRS-A activity (rate of inhibition against the contraction amount) (SRS-A; 10^-6 M): 0
- anti-SRS-A activity (in words) (SRS-A; compound 11 at a concentration of 10^-3 M): moderate anti-SRS-A activity
- activity at 1000 µM ([4]; Rattus norvegicus, Mast cell, 20 min, 10^-3 M, DNP-Ascaris 20 microgramms/ml, read-out: Amount of histamine released from peritoneal mast cell (Control = 100)): 13%
- activity at 100 µM ([4]; Rattus norvegicus, Mast cell, 20 min, 10^-4 M, DNP-Ascaris 20 microgramms/ml, read-out: Amount of histamine released from peritoneal mast cell (Control = 100)): 59%
- activity at 10 µM ([4]; Rattus norvegicus, Mast cell, 20 min, 10^-5 M, DNP-Ascaris 20 microgramms/ml, read-out: Amount of histamine released from peritoneal mast cell (Control = 100)): 51%
- activity at 1 µM ([4]; Rattus norvegicus, Mast cell, 20 min, 10^-6 M, DNP-Ascaris 20 microgramms/ml, read-out: Amount of histamine released from peritoneal mast cell (Control = 100)): 55%
- inhibition of release of histamine from the mast cell (in words) ([4]; even at the low concentration of 10^-6 M): inhibiting release of histamine
- average living time ([5]; 200 mg/kg perorally, control group 294.9 seconds): 441.7 s
- Extended rate (%) ([5]; 200 mg/kg po): 49.8%
- anti-PSA activity (in words) ([5]; 200 mg/kg po): statistically significant anti-PSA activity
- Ave. time to death Mean ± S.E. ([5]; 200 mg/kg po, N 10): 441.70 ± 21.5 s
- Required time (sec.) to death, single animals ([5]; 200 mg/kg po, N 10): 431 s and 548 s and 488 s and 475 s and 367 s and 492 s and 485 s and 352 s and 348 s
- LD50 at 168 h ([6]; iv, read-out: LD50 value (mg/kg body weight) Mouse i.v.): 344 mg/kg
- LD50 at 168 h ([6]; po, read-out: LD50 value (mg/kg body weight) Mouse p.o.): > 10000 mg/kg
- LD50 at 168 h [7]: > 10000 mg/kg
